Data: patent publication US9284306B2, “(R)-Nifuratel, its use for the treatment of infections and synthesis of (R) and (S)-Nifuratel” (POLICHEM SA, priority 2012, dated 2016)
In brackets after ≈: the same amount, converted by molar mass.

Legend:
Gardnerella vaginalis = experiment: MIC, agar dilution; assay type: cell-based
Experimental: (§1) Micrococcus pyogenes (ATCC 11631), Bacillus subtilis (ATCC 11774), Lactobacillus iners (ATCC 55195), Escherichia coli (ATCC 11775), Proteus mirabilis (ATCC 14153), Klebsiella pneumoniae (ATCC 10031), Shigella sonnei (ATCC 11060), Neisseria gonorrhoeae (ATCC 19424), Salmonella typhimurium (ATCC 14028) Salmonella paratyphi B (ATCC 10719), Helicobacter pylori (ATCC 43504) and several strains of Atopobium vaginae and Gardnerella vaginalis.
(§2) Strains were prepared from freeze-dried pellets. An isolation of the suspensions (to test the strains purity) and a strains massive growth were made by streaking microbial suspensions on agar media. The bacterial colonies on agar plates were collected with 3-5 mL of specific liquid medium+15% glycerol and then the aliquots were frozen at −80° C.
(§3) Compounds Minimal Inhibitory Concentration (MIC) was determined through broth micro-dilution susceptibility testing with a method developed following the National Committee for Clinical Laboratory Standards (CLSI) M07-A8 and M11-A7 references. Assays were carried out in specific media (Table 3). The tests were performed either following the broth microdilution assay or the agar dilution assay. Compounds stock solutions were made at 12.8 mg/mL in DMSO 100%. A series of twofold dilutions were then prepared using the strain specific broth. Final concentrations were from 0.125 μg/mL to 64 μg/mL at 1% DMSO. MIC is defined as the lowest concentration of antibacterial agent which prevent any visible growth.

Atopobium vaginae = experiment: MIC, agar dilution; assay type: cell-based; conditions: Fannyhessea vaginae
Experimental: as §1, §2, §3

in vivo [1] = conditions: male, rat, iv, 2 mg/kg
[2] = tested on: Micrococcus pyogenes ATCC 11631; experiment: MIC, broth microdilution; assay type: cell-based; conditions: Staphylococcus aureus, ATCC11631
Experimental: as §1, §2, §3

[3] = tested on: Klebsiella pneumonia ATCC 10031; experiment: MIC, broth microdilution; assay type: cell-based; conditions: Klebsiella pneumoniae, ATCC10031
Experimental: as §1, §2, §3

[4] = tested on: Proteus mirabilis ATCC 14153; experiment: MIC, broth microdilution; assay type: cell-based; conditions: Proteus mirabilis, ATCC14153
Experimental: as §1, §2, §3

[5] = tested on: Escherichia coli ATCC 11775; experiment: MIC, broth microdilution; assay type: cell-based; conditions: Escherichia coli, ATCC11775
Experimental: as §1, §2, §3

[6] = tested on: Lactobacillus iners ATCC 55195; experiment: MIC, broth microdilution; assay type: cell-based; conditions: Lactobacillus iners, ATCC55195
Experimental: as §1, §2, §3

[7] = tested on: Salmonella paratyphi B ATCC 10719; experiment: MIC, broth microdilution; assay type: cell-based; conditions: Salmonella enterica
Experimental: as §1, §2, §3

[8] = tested on: Shigella sonnei ATCC 11060; experiment: MIC, broth microdilution; assay type: cell-based; conditions: ATCC11060
Experimental: as §1, §2, §3

[9] = tested on: Helicobacter pylori ATCC 43504; experiment: MIC, broth microdilution; assay type: cell-based; conditions: Helicobacter pylori, ATCC43504
Experimental: as §1, §2, §3

[10] = tested on: Neisseria gonorrhoeae ATCC 19424; experiment: MIC, broth microdilution; assay type: cell-based; conditions: Neisseria gonorrhoeae, ATCC19424
Experimental: as §1, §2, §3

[11] = tested on: Salmonella typhimurium ATCC 14028; experiment: MIC, broth microdilution; assay type: cell-based; conditions: Salmonella enterica
Experimental: as §1, §2, §3

Bacillus subtilis = experiment: MIC, broth microdilution; assay type: cell-based
Experimental: as §1, §2, §3

in vivo [12] = conditions: male, rat, po, 15 mg/kg

SMILES: CSCC1CN(/N=C/c2ccc([N+](=O)[O-])o2)C(=O)O1 (racemic) [Nifuratel racemate, Nifuratel]
- MIC (Gardnerella vaginalis; ATCC14018, agar dilution, Gardnerella vaginalis ATCC 14018): 2 µg/mL (≈ 7.01 µM)
- MIC (Gardnerella vaginalis; agar dilution, Gardnerella vaginalis C2): 8 µg/mL (≈ 28 µM)
- MIC (Gardnerella vaginalis; agar dilution, Gardnerella vaginalis D2): 4 µg/mL (≈ 14 µM)
- MIC (Gardnerella vaginalis; agar dilution, Gardnerella vaginalis E2): 2 µg/mL (≈ 7.01 µM)
- MIC (Gardnerella vaginalis; agar dilution, Gardnerella vaginalis G2): 2 µg/mL (≈ 7.01 µM)
- MIC (Gardnerella vaginalis; agar dilution, Gardnerella vaginalis H2): 1 µg/mL (≈ 3.51 µM)
- MIC (Gardnerella vaginalis; agar dilution, Gardnerella vaginalis J2): 2 µg/mL (≈ 7.01 µM)
- MIC (Gardnerella vaginalis; agar dilution, Gardnerella vaginalis K2): 4 µg/mL (≈ 14 µM)
- MIC (Atopobium vaginae; CCUG38953): 0.125 µg/mL (≈ 0.438 µM)
- MIC (Atopobium vaginae; CCUG39382): 0.25 µg/mL (≈ 0.876 µM)
- MIC (Atopobium vaginae; CCUG42099): 0.5 µg/mL (≈ 1.75 µM)
- MIC (Atopobium vaginae; CCUG43049): 0.25 µg/mL (≈ 0.876 µM)
- MIC (Atopobium vaginae; CCUG44061): 0.5 µg/mL (≈ 1.75 µM)
- MIC (Atopobium vaginae; CCUG44156): 0.5 µg/mL (≈ 1.75 µM)
- MIC (Atopobium vaginae; CCUG48515): 1 µg/mL (≈ 3.51 µM)
- MIC (Atopobium vaginae; CCUG55226): 1 µg/mL (≈ 3.51 µM)
- MIC (Atopobium vaginae; CCUG55227): 0.25 µg/mL (≈ 0.876 µM)
- AUC(0-inf) (in vivo [1]): 125 ng·h/mL
- AUC(0-t) (in vivo [1]): 122 ng·h/mL
- Clast (in vivo [1]): 5 ng/mL
- Cmax (in vivo [1]): 555 ng/mL
- MRT (in vivo [1]): 13 min
- Tlast (in vivo [1]): 120 min
- Tmax (in vivo [1]): 2 min
- VSR (in vivo [1]): 4.5 L/kg
- clearance (in vivo [1]): 267 mL/min/kg
- half-life (in vivo [1]): 24 min
- MIC [2]: 1 µg/mL (≈ 3.51 µM)
- MIC [3]: 2 µg/mL (≈ 7.01 µM)
- MIC [4]: 8 µg/mL (≈ 28 µM)
- MIC [5]: 1 µg/mL (≈ 3.51 µM)
- MIC [6]: 16 µg/mL (≈ 56.1 µM)
- MIC [7]: 2 µg/mL (≈ 7.01 µM)
- MIC [8]: 1 µg/mL (≈ 3.51 µM)
- MIC [9]: 0.125 µg/mL (≈ 0.438 µM)
- MIC [10]: 0.25 µg/mL (≈ 0.876 µM)
- MIC [11]: 4 µg/mL (≈ 14 µM)
- MIC (Bacillus subtilis): 0.5 µg/mL (≈ 1.75 µM)
- AUC(0-t) (in vivo [12]): 20.3 ng·h/mL
- Clast (in vivo [12]): 3 ng/mL
- Cmax (in vivo [12]): 8 ng/mL
- MRT (in vivo [12]): 109 min
- Tlast (in vivo [12]): 240 min
- Tmax (in vivo [12]): 30 min
- half-life (in vivo [12]): 182 min
